Results taken from patent US12447153B2, “HER2 mutation inhibitors” (Array BioPharma Inc., priority 2021, dated 2025).

Assays:
[1] = biological target: ErbB2 with Exon 20 YVMA insertion (HER2-YVMA) (Homo sapiens (Human), UniProt P04626, INS775YVMA); assay: Cellular Phosphorylation Assay, Assay 4 (constitutive ErbB2 phosphorylation, NIH 3T3 cells); format: cell-based
Experimental: (§1) NIH 3T3 cells were engineered to express ErbB2 with Exon 20 YVMA insertion (HER2-YVMA (SEQ ID NO: 2); Assay 4) or EGFR wild type (EGFR WT; Assay 5) with constructs obtained from GenScript and grown in DMEM supplemented with 10% fetal bovine serum and 15 μg/ml blasticidin. […] Serially diluted compounds were added to the plates for 1 hour at 37° C./5% CO2. EGFR WT cells were stimulated with 100 ng/ml rEGF for an additional 10 minutes at 37° C./5% CO2.
(§2) After compound incubation, medium was removed from the cells, which were then fixed in 3.7% formaldehyde in PBS at room temperature for 20 minutes. Following a wash with PBS, cells were permeabilized with 100% methanol at room temperature for 10 minutes. Cells were then washed with PBS/0.05% Tween-20 and blocked with Odyssey blocking buffer (LI-COR Biosciences) for at least 1 hour at room temperature. Antibodies to phosphorylated ErbB2 (Y1196, Cell Signaling #6942) or phosphorylated EGFR (Y1068, Cell Signaling #3777) and GAPDH (Millipore #MAB374) were added to the cells in blocking buffer containing 0.05% azide and incubated overnight at 4° C. After washing with PBS/0.05% Tween-20, the cells were incubated with fluorescently labeled secondary anti-rabbit antibody (LiCOR, IRDye 800CW #926-32211) and anti-mouse antibody (Molecular Probes, Alexa Fluor 680 #A21058) for 1 hour at room temperature in the dark. Cells were then washed and analyzed for fluorescence at both wavelengths using the Odyssey Infrared Imaging System (LI-COR Biosciences). Phosphorylated ErbB2 and EGFR signal was normalized to GAPDH signal to generate curves and calculate IC50 values.

EGFR = EGFR (Homo sapiens (Human), UniProt P00533); assay: ErbB Enzyme Assay (HTRF KinEASE-TK), Assay 3; format: biochemical
Chain of EGFR (P00533 25-1210): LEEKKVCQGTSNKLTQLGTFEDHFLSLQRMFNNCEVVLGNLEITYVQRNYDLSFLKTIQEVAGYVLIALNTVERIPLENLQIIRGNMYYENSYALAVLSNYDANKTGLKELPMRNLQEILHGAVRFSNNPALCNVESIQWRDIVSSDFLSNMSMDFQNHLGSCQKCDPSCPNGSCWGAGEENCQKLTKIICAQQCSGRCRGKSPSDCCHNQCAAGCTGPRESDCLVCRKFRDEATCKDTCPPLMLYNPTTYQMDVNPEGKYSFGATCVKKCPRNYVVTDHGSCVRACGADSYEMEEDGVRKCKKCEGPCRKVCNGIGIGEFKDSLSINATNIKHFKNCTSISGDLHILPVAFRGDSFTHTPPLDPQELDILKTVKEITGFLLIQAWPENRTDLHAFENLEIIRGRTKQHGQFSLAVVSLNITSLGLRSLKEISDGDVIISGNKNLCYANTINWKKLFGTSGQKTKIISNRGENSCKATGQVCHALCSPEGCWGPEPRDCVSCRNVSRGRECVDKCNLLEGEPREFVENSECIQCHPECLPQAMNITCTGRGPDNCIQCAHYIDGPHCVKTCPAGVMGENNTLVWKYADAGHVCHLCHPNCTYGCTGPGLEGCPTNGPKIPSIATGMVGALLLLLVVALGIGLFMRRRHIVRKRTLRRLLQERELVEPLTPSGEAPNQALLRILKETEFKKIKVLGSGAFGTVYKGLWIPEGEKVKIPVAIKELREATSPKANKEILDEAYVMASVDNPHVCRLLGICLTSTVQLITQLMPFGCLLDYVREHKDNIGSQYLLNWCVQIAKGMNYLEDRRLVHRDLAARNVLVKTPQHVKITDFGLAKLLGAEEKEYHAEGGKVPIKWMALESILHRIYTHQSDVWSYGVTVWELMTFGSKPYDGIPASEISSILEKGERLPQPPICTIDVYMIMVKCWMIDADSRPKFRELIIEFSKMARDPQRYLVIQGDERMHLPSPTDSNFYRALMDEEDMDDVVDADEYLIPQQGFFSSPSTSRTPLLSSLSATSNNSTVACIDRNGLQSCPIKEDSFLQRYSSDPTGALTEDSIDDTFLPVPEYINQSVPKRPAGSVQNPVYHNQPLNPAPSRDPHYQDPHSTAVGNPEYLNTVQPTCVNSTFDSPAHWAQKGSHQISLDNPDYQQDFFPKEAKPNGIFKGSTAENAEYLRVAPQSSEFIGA
Experimental: The kinases were incubated with 250 nM TK-substrate biotin (CisBio, part of cat #62TKOPEC) at 1 mM ATP along with test compounds in a buffer consisting of 25 mM HEPES, pH 7.4, 10 mM MgCl2, 0.01% Triton X-100, and 2% DMSO in a volume of 8 μL. […] After 30-minute incubation at 22° C., the reaction was quenched by adding 8 μL of quench solution containing 62.5 nM Sa-XL665 and 0.25×TK-Ab-Cryptate in HTRF detection buffer (all from CisBio, part of cat #62TKOPEC). […] A 4-parameter logistic curve was fit to the POC values as a function of the concentration of compound, and the IC50 value was the point where the best-fit curve crossed 50 POC.

ErbB2 WT = ErbB2 WT (Homo sapiens (Human), UniProt P04626); assay: ErbB Enzyme Assay (HTRF KinEASE-TK), Assay 2; format: biochemical
Chain of ErbB2 WT (P04626 23-1255): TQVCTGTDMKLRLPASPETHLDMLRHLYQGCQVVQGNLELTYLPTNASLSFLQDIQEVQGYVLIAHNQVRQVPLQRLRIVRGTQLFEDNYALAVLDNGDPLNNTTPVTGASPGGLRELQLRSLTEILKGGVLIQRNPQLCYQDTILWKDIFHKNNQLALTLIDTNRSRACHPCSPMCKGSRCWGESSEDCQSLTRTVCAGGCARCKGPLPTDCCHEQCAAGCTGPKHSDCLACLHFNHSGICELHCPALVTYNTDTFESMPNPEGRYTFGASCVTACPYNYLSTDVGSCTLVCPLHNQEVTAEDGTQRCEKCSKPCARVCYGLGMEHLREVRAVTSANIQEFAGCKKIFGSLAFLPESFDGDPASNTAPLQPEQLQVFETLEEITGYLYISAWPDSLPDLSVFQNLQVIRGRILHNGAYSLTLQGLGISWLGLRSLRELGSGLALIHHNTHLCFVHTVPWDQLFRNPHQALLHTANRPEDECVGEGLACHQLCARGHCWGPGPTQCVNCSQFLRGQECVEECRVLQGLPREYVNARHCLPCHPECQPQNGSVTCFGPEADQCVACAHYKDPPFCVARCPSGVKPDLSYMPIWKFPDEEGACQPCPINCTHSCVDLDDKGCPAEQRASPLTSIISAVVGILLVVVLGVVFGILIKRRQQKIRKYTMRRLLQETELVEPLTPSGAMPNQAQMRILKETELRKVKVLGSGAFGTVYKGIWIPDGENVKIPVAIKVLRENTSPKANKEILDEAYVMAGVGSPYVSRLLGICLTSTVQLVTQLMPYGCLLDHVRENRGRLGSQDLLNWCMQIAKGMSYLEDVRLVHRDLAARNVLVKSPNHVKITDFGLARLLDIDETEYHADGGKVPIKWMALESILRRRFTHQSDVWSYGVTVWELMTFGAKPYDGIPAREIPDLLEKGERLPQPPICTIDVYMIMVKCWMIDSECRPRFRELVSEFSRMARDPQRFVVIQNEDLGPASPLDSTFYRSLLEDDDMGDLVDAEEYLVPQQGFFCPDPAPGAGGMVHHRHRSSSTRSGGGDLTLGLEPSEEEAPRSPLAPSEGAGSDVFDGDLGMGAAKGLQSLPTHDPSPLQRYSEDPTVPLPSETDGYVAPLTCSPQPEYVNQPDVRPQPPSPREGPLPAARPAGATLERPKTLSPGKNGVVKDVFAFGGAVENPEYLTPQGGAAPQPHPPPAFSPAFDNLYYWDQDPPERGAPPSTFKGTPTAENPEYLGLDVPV
Experimental: The kinases were incubated with 250 nM TK-substrate biotin (CisBio, part of cat #62TKOPEC) at 1 mM ATP along with test compounds in a buffer consisting of 25 mM HEPES, pH 7.4, 10 mM MgCl2, 0.01% Triton X-100, and 2% DMSO in a volume of 8 μL. […] After 30-minute incubation at 22° C., the reaction was quenched by adding 8 μL of quench solution containing 62.5 nM Sa-XL665 and 0.25×TK-Ab-Cryptate in HTRF detection buffer (all from CisBio, part of cat #62TKOPEC).

EGFR wild type (EGFR WT) = EGFR wild type (EGFR WT) (Homo sapiens (Human), UniProt P00533); assay: Cellular Phosphorylation Assay, Assay 5 (EGF-stimulated EGFR phosphorylation, NIH 3T3 cells); format: cell-based
Chain of EGFR wild type (EGFR WT) (P00533 25-1210): as the sequence (P00533 25-1210) above
Experimental: as §1, §2

[2] = cellular ErbB2 YVMA phosphorylation
[3] = cellular EGFR WT phosphorylation, EGF-stimulated
[4] = EGF-stimulated EGFR WT phosphorylation

Chain of ErbB2 with Exon 20 YVMA insertion (HER2-YVMA) (P04626 other isoform, or with tags, fused parts or gaps ins YVMA behind 775): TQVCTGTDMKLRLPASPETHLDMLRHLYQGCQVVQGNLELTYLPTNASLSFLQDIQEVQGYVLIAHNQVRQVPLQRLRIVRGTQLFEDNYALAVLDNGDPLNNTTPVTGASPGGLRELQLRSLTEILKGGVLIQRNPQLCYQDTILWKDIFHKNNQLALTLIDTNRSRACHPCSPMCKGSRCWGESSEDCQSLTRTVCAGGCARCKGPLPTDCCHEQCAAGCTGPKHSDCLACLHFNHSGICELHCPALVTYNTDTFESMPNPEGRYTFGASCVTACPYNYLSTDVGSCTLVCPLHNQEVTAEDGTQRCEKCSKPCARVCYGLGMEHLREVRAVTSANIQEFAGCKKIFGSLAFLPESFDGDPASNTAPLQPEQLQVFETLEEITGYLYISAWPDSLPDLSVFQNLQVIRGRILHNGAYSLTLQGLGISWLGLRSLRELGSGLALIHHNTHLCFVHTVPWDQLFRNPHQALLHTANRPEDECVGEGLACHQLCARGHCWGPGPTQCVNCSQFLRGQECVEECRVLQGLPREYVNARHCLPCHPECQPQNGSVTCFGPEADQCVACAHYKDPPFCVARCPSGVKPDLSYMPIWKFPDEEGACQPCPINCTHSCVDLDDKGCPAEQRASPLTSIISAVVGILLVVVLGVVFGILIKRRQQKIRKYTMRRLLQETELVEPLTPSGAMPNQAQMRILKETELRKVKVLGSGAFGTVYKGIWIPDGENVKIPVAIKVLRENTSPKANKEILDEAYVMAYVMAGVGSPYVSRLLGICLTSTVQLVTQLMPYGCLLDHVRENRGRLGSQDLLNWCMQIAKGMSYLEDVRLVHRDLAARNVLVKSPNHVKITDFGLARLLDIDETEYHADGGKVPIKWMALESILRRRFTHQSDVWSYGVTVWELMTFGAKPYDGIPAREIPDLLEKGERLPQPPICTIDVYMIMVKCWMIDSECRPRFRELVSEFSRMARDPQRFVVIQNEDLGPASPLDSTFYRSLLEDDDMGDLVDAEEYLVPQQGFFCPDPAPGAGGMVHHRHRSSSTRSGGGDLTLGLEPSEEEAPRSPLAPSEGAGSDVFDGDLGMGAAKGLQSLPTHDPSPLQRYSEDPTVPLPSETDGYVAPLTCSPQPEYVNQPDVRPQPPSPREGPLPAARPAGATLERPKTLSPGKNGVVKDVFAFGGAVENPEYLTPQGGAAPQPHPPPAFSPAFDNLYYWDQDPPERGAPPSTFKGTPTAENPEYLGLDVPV

SMILES	IC50 [1, 2] [nM]	IC50 (EGFR; EGFR enzyme assay) [nM]	IC50 (ErbB2 WT; ErbB2 WT enzyme assay) [nM]	IC50 (EGFR wild type (EGFR WT); [3]) [nM]	IC50 ([1]; ErbB2 YVMA phosphorylation) [nM]	IC50 (EGFR; EGFR enzyme) [nM]	IC50 (ErbB2 WT; ErbB2 WT enzyme) [nM]	IC50 (EGFR wild type (EGFR WT); [4]) [nM]
C=CC(=O)N1CCN(c2ccc3ncnc(Nc4ccc(Oc5ccn6ncnc6c5)c(Cl)c4F)c3n2)C[C@@H]1C(F)F (racemic) [Example 299]	4.1	29.4	1.2	66.2				
C=CC(=O)N1CCN(c2ccc3ncnc(Nc4ccc(Oc5ccn6ncnc6c5)c(Cl)c4F)c3n2)C[C@@H]1COC [Example 348]	8.2	414	12.1	348				
C=CC(=O)N1C[C@H]2C[C@@H]1[C@H](c1ccc3ncnc(Nc4cc(C)c(Oc5ccn6ncnc6c5)cc4F)c3n1)C2 [Example 371]	82.4	3440	55	≥ 5000				
C=CC(=O)N1[C@@H]2CCC[C@H]1[C@@H](c1ccc3ncnc(Nc4cc(C)c(Oc5ccn6ncnc6c5)cc4F)c3n1)C2 [Example 414]	57.6	866	30.1	≥ 5000				
C=CC(=O)N1[C@@H]2CC[C@H]1[C@H](c1ccc3ncnc(Nc4cc(C)c(Oc5cnc6c(c5)ncn6C)cc4F)c3n1)C2 [Example 417]	51.6	≥ 10000	215	≥ 5000				
C=CC(=O)N1[C@@H]2CC[C@H]1CC(c1ccc3ncnc(Nc4cc(C)c(Oc5ccn6ncnc6c5)cc4F)c3n1)C2 (stereo partly drawn) [Example 194, 1-((1R,5S)-3-(4-((4-([1,2,4]triazolo[1,5-a]pyridin-7-yloxy)-2-fluoro-5-methylphenyl)amino)pyrido[3,2-d]pyrimidin-6-yl)-8-azabicyclo[3.2.1]octan-8-yl)prop-2-en-1-one]					33.9	5800	171	2780
CC#CC(=O)Nc1ccc2ncnc(Nc3ccc(Oc4ccc5c(c4)ncn5C)c(C)c3)c2n1 [Example 19, N-(4-((3-methyl-4-((1-methyl-1H-benzo[d]imidazol-5-yl)oxy)phenyl)amino)pyrido[3,2-d]pyrimidin-6-yl)but-2-ynamide]					87.8	205	17.8	
CNC(=O)/C=C/c1ccc2ncnc(Nc3ccc(Oc4ccc5c(c4)ncn5C)c(C)c3)c2n1 [Example 22, (E)-N-methyl-3-(4-((3-methyl-4-((1-methyl-1H-benzo[d]imidazol-5-yl)oxy)phenyl)amino)pyrido[3,2-d]pyrimidin-6-yl)acrylamide]					80.6	≥ 10000	167	
C=CS(=O)(=O)N(C)c1ccc2ncnc(Nc3ccc(Oc4ccc5c(c4)ncn5C)c(C)c3)c2n1 [Example 21, N-methyl-N-(4-((3-methyl-4-((1-methyl-1H-benzo[d]imidazol-5-yl)oxy)phenyl)amino)pyrido[3,2-d]pyrimidin-6-yl)ethenesulfonamide]					250	466	83.2	
C=CC(=O)N1C2COCC1CC(c1ccc3ncnc(Nc4ccc(Oc5ccc6c(c5)ncn6C)c(C)c4F)c3n1)C2 (stereo not drawn) [Example 161, 1-(7-(4-((2-fluoro-3-methyl-4-((1-methyl-1H-benzo[d]imidazol-5-yl)oxy)phenyl)amino)pyrido[3,2-d]pyrimidin-6-yl)-3-oxa-9-azabicyclo[3.3.1]nonan-9-yl)prop-2-en-1-one]						570	19.9	368
CC#CC(=O)N1C[C@@H]2CC[C@H]1CN2c1ccc2ncnc(Nc3ccc(Oc4ccn5ncnc5c4)c(C)c3F)c2n1 [Example 329]	73.7		103	1420				
C=CC(=O)N1CCC(Oc2ccc3ncnc(Nc4ccc(Oc5ccc6sc(C)nc6c5)c(Cl)c4F)c3n2)CC1 [Example 16, 1-(4-((4-((3-chloro-2-fluoro-4-((2-methylbenzo[d]thiazol-5-yl)oxy)phenyl)amino)pyrido[3,2-d]pyrimidin-6-yl)oxy)piperidin-1-yl)prop-2-en-1-one]						≥ 10000	10000	
C=CC(=O)N1CCC(Oc2ccc3ncnc(Nc4ccc(Oc5ccc6sc(C)nc6c5)c(C)c4)c3n2)CC1 [Example 7, 1-(4-((4-((3-methyl-4-((2-methylbenzo[d]thiazol-5-yl)oxy)phenyl)amino)pyrido[3,2-d]pyrimidin-6-yl)oxy)piperidin-1-yl)prop-2-en-1-one]						≥ 10000	2090	
Cc1c(Oc2ccn3ncnc3c2)ccc(Nc2ncnc3ccc(N4CCN(C(=O)C56CC5C6)C(C)(C)C4)nc23)c1F (stereo not drawn) [Example 186, (4-(4-((4-([1,2,4]triazolo[1,5-a]pyridin-7-yloxy)-2-fluoro-3-methylphenyl)amino)pyrido[3,2-d]pyrimidin-6-yl)-2,2-dimethylpiperazin-1-yl)(bicyclo[1.1.0]butan-1-yl)methanone]					408		69.1	≥ 5000
C=CC(=O)N(C)c1ccc2ncnc(Nc3ccc(Oc4ccc5c(c4)ncn5C)c(C)c3)c2n1 [Example 23, N-methyl-N-(4-((3-methyl-4-((1-methyl-1H-benzo[d]imidazol-5-yl)oxy)phenyl)amino)pyrido[3,2-d]pyrimidin-6-yl)acrylamide]					63.9	709	72.7	
C=CS(=O)(=O)Nc1ccc2ncnc(Nc3ccc(Oc4ccc5c(c4)ncn5C)c(C)c3)c2n1 [Example 20, N-(4-((3-methyl-4-((1-methyl-1H-benzo[d]imidazol-5-yl)oxy)phenyl)amino)pyrido[3,2-d]pyrimidin-6-yl)ethenesulfonamide]					1740	340	47.9	
C=CC(=O)N1CCC(Oc2ccc3ncnc(Nc4ccc(Oc5ccc6sc(C)nc6c5)c(C)c4F)c3n2)CC1 [Example 10, 1-(4-((4-((2-fluoro-3-methyl-4-((2-methylbenzo[d]thiazol-5-yl)oxy)phenyl)amino)pyrido[3,2-d]pyrimidin-6-yl)oxy)piperidin-1-yl)prop-2-en-1-one]						≥ 10000	2400	
C=CC(=O)Nc1ccc2ncnc(Nc3ccc(Oc4ccc5c(c4)ncn5C)c(C)c3)c2n1 [Example 18, N-(4-((3-methyl-4-((1-methyl-1H-benzo[d]imidazol-5-yl)oxy)phenyl)amino)pyrido[3,2-d]pyrimidin-6-yl)acrylamide]					443	369	42.3	
C=CC(=O)N1C[C@H]2CC[C@@H]1C[C@@H]2c1ccc2ncnc(Nc3cc(C)c(Oc4ccn5ncnc5c4)cc3F)c2n1 (racemic) [Example 216, rac-1-((1R,4S,5S)-5-(4-((4-([1,2,4]triazolo[1,5-a]pyridin-7-yloxy)-2-fluoro-5-methylphenyl)amino)pyrido[3,2-d]pyrimidin-6-yl)-2-azabicyclo[2.2.2]octan-2-yl)prop-2-en-1-one]						5000		≥ 5000
C=CC(=O)N1CCN(c2ccc3ncnc(Nc4ccc(Oc5ccn6ncnc6c5)c(C)c4F)c3n2)C[C@@H]1CC [Example 269]		8200		≥ 5000				
CC#CC(=O)N1CCN(c2ccc3ncnc(Nc4ccc(Oc5ccn6ncnc6c5)c(C)c4F)c3n2)C[C@H]1C [Example 184, (R)-1-(4-(4-((4-([1,2,4]triazolo[1,5-a]pyridin-7-yloxy)-2-fluoro-3-methylphenyl)amino)pyrido[3,2-d]pyrimidin-6-yl)-2-methylpiperazin-1-yl)but-2-yn-1-one]						≥ 10000		≥ 5000
